In ChEMBL document CHEMBL1201862, “PubChem BioAssay data set” (2004):
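All cell lines were grown in 96-well plates and treated with compound for 48 hours. Abbreviation: GI50, concentration required for 50% inhibition of growth.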 Activity calls are given as the source filed them. No stated cut-off is given here; in the data, active = GI50 up to about 1.1 µM and inactive = higher.

Assays:
Assay in all cases: NCI anticancer screen, dose series, 48 h
DU-145 = test system: DU-145
MDA-MB-231 = test system: MDA-MB-231
SK-MEL-5 = test system: SK-MEL-5
SK-OV-3 = test system: SK-OV-3
NCI-H460 = test system: NCI-H460
TK-10 = test system: TK-10
SF-539 = test system: SF-539
A549 = test system: A549
HL-60 = test system: HL-60
RPMI-8226 = test system: RPMI-8226
LOX IMVI = test system: LOX IMVI
OVCAR-8 = test system: OVCAR-8
OVCAR-5 = test system: OVCAR-5
Malme-3M = test system: Malme-3M
NCI-H226 = test system: NCI-H226
IGROV-1 = test system: IGROV-1
HCT-116 = test system: HCT-116
MDA-N = test system: MDA-N
HCC 2998 = test system: HCC 2998
M14 = test system: M14
SNB-19 = test system: SNB-19
CAKI-1 = test system: CAKI-1
CCRF-CEM = test system: CCRF-CEM
SNB-75 = test system: SNB-75
A498 = test system: A498
HCT-15 = test system: HCT-15
BT-549 = test system: BT-549
SF-295 = test system: SF-295
NCI-H23 = test system: NCI-H23
HOP-92 = test system: HOP-92
K562 = test system: K562
SN12C = test system: SN12C
U-251 = test system: U-251
OVCAR-3 = test system: OVCAR-3
MOLT-4 = test system: MOLT-4
HOP-62 = test system: HOP-62
PC-3 = test system: PC-3
RXF 393 = test system: RXF 393
HT-29 = test system: HT-29
SR = test system: SR
SK-MEL-28 = test system: SK-MEL-28
UO-31 = test system: UO-31
Hs-578T = test system: Hs-578T
KM12 = test system: KM12
786-0 = test system: 786-0
NCI-H522 = test system: NCI-H522
SW-620 = test system: SW-620
T47D = test system: T47D
NCI/ADR-RES = test system: NCI/ADR-RES
EKVX = test system: EKVX
MDA-MB-435 = test system: MDA-MB-435
UACC-62 = test system: UACC-62
ACHN = test system: ACHN
SK-MEL-2 = test system: SK-MEL-2
SF-268 = test system: SF-268
UACC-257 = test system: UACC-257
OVCAR-4 = test system: OVCAR-4
COLO 205 = test system: COLO 205

For `CC(C)c1nc(Cl)nc(Cl)c1Cl`, the GI50 (DU-145) was 3120 nM (inactive), the GI50 (MDA-MB-231) was 1240 nM (inactive) and the GI50 (SK-MEL-5) was 861 nM (active). For the same compound, the GI50 (SK-OV-3) was 4580 nM (inactive), the GI50 (NCI-H460) was 1290 nM (inactive) and the GI50 (TK-10) was 468 nM (active). The GI50 (SF-539) was 515 nM (active), the GI50 (A549) was 1580 nM (inactive) and the GI50 (HL-60) was 12.5 nM (active). The GI50 (RPMI-8226) was 142 nM (active), the GI50 (LOX IMVI) was < 36.5 nM (active) and the GI50 (OVCAR-8) was 436 nM (active). For the same compound, the GI50 (OVCAR-5) was 414 nM (active), the GI50 (Malme-3M) was 304 nM (active) and the GI50 (NCI-H226) was 2270 nM (inactive). For the same compound, the GI50 (IGROV-1) was 172 nM (active), the GI50 (HCT-116) was 34.4 nM (active) and the GI50 (MDA-N) was 679 nM (active). The GI50 (HCC 2998) was 948 nM (active), the GI50 (M14) was 84.3 nM (active) and the GI50 (SNB-19) was 847 nM (active). For the same compound, the GI50 (CAKI-1) was < 10 nM (active), the GI50 (CCRF-CEM) was < 10 nM (active) and the GI50 (SNB-75) was 5110 nM (inactive). The GI50 (A498) was 3270 nM (inactive), the GI50 (HCT-15) was 279 nM and the GI50 (BT-549) was 11.3 nM (active). The GI50 (SF-295) was 2820 nM (inactive), the GI50 (NCI-H23) was 474 nM (active) and the GI50 (HOP-92) was 23.3 nM (active). For the same compound, the GI50 (K562) was < 10 nM (active), the GI50 (SN12C) was 482 nM (active) and the GI50 (U-251) was 610 nM (active). For the same compound, the GI50 (OVCAR-3) was 142 nM (active), the GI50 (MOLT-4) was 28.4 nM (active) and the GI50 (HOP-62) was 794 nM (active). The GI50 (PC-3) was 401 nM (active), the GI50 (RXF 393) was 365 nM (active) and the GI50 (HT-29) was 47.9 nM (active). For the same compound, the GI50 (SR) was < 10 nM (active), the GI50 (SK-MEL-28) was 357 nM (active) and the GI50 (UO-31) was 71.1 nM (active). For the same compound, the GI50 (Hs-578T) was 302 nM (active), the GI50 (KM12) was 293 nM (active) and the GI50 (786-0) was 104 nM (active). The GI50 (NCI-H522) was 303 nM (active), the GI50 (SW-620) was < 23.3 nM (active) and the GI50 (T47D) was 600 nM (active). For the same compound, the GI50 (NCI/ADR-RES) was 295 nM (active), the GI50 (EKVX) was 1630 nM (inactive) and the GI50 (MDA-MB-435) was 241 nM (active). The GI50 (UACC-62) was 266 nM (active), the GI50 (ACHN) was 264 nM (active) and the GI50 (SK-MEL-2) was 239 nM (active). The GI50 (SF-268) was 1160 nM (inactive), the GI50 (UACC-257) was 256 nM (active) and the GI50 (OVCAR-4) was 249 nM (active). The GI50 (COLO 205) was 239 nM (active).
